In brackets after ≈: the same amount, converted by molar mass. Read-outs that look alike come from different tables or passages of the source.
Experiments:
HBV = conditions: Ptak et al. 2008; read-out: IC50 against HBV; cited from earlier work
HIV-1 = conditions: clinical, Steyn et al., 2006, cited from earlier work
[1] = test system: HCV genotype 1b I389luc-ubi-neo/NS3-3'/5.1 replicon in Huh5.2 cells; assay: microbe, parasite or virus in culture; type: cell-based, Hepatitis C Virus
[2] = test system: peripheral blood mononuclear cells (PBMC); assay: Mixed lymphocyte reaction (MLR) for immunosuppressant activity; type: cell-based, human; conditions: 3H-thymidine proliferation; read-out: Human MLR IC50
[3] = pH 7.4
CyPA = CyPA (Homo sapiens, UniProt P62937); conditions: cited from earlier work
Huh5.2 cells = assay: Anti-metabolic effect (MTS) in the replicon cell line
[4] = target: T1, GST-CypD / Con1 NS5A-His complex (Homo sapiens, UniProt P30405); assay: ELISA analysis of Cyp-NS5A interaction (CypD-NS5A disruption)
[5] = test system: HIV (pNL4.3-GFP / pNL4.3-BaL-GFP) in CD4+ HeLa cells; assay: microbe, parasite or virus in culture; type: cell-based
[6] = test system: HIV (pNL4.3-GFP / pNL4.3-BaL-GFP) in Jurkat cells; assay: microbe, parasite or virus in culture; type: cell-based; conditions: Human immunodeficiency virus 1, BAL, 48 h, read-out: T cells EC50
[7] = test system: HIV (pNL4.3-GFP / pNL4.3-BaL-GFP) in CD4+ T-lymphocytes; assay: microbe, parasite or virus in culture; type: cell-based; conditions: Human immunodeficiency virus 1, BAL, T-lymphocyte, 48 h, read-out: CD4+ T-lymphocytes EC50
[8] = test system: HIV (pNL4.3-GFP / pNL4.3-BaL-GFP) in macrophages; assay: microbe, parasite or virus in culture; type: cell-based; conditions: Human immunodeficiency virus 1, BAL, Macrophage, 48 h, read-out: Macrophages EC50
[9] = test system: HBV in HepG2 2.2.15 cells; assay: HBV antiviral assay (HBV DNA by qPCR); type: cell-based, Hepatitis B Virus
[10] = Cell viability (dye uptake) in the HBV assay; type: cell-based; conditions: human, HepG2 2.2.15 cells; read-out: TC50
Protocol: (§1) Antiviral efficacy against HBV may be tested as follows: HepG2 2.2.15 cells are plated in 96-well microtiter plates. After 16-24 hours the confluent monolayer of HepG2 2.2.15 cells is washed and the medium is replaced with complete medium containing various concentrations of a test compound in triplicate (eg six half-log concentrations). Three days later the culture medium is replaced with fresh medium containing the appropriately diluted test compounds. Six days following the initial administration of the test compound, the cell culture supernatant is collected, treated with pronase and then used in a real-time quantitative TaqMan qPCR assay. The PCR-amplified HBV DNA is detected in real-time by monitoring increases in fluorescence signals that result from the exonucleolytic degradation of a quenched fluorescent probe molecule that hybridizes to the amplified HBV DNA. For each PCR amplification, a standard curve is simultaneously generated using dilutions of purified HBV DNA. Antiviral activity is calculated from the reduction in HBV DNA levels (IC50). A dye uptake assay is then employed to measure cell viability, which is used to calculate toxicity (TC50). The therapeutic index (TI) is calculated as TC50/IC50.

HepG2 2.2.15 cells = assay: Cell viability (dye uptake) in the HBV assay; type: cell-based; conditions: at concentrations up to 32 μM
Protocol: as §1

physchem = conditions: pH 7.4, aqueous buffer, kinetic from dmso stock
[11] = target: T1, GST-CypD / Con1 NS5A-His complex; assay: biochemical
[12] = Anti-metabolic effect (MTS) in the replicon cell line; conditions: human
[13] = Hepatitis C virus, Huh-5-2, 72 h

T1 sequence (P30405 30-207, one chain of several): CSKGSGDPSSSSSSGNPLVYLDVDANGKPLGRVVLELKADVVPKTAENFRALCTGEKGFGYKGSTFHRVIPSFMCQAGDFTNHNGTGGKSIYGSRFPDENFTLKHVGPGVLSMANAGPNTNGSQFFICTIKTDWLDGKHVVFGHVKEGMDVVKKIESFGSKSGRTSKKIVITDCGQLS
Sequence of CyPA (P62937 whole entry): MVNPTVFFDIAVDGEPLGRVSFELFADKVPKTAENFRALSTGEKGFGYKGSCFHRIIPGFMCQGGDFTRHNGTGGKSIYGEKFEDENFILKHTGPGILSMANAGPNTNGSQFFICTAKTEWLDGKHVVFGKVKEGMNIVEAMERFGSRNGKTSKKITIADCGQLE

With `C/C=C/C[C@@H](C)[C@@H](O)[C@H]1C(=O)N[C@@H](CC)C(=O)N(C)[C@H](C)C(=O)N(CC)[C@@H](C(C)C)C(=O)N[C@@H](C(C)C)C(=O)N(C)[C@@H](CC(C)C)C(=O)N[C@@H](C)C(=O)N[C@H](C)C(=O)N(C)[C@@H](CC(C)C)C(=O)N(C)[C@@H](CC(C)C)C(=O)N(C)[C@@H](C(C)C)C(=O)N1C` [DEBIO-025] as the molecule, how does the IC50 (HBV) read?
The IC50 was 4.1 µM.

And the “reduction of HIV-1 RNA levels” value (HIV-1; in nine patients)?
The value was at least 0.5 log10 copies/mL.

What about the “reduction of HIV-1 RNA levels” value (HIV-1; in two patients) of the same molecule?
The value was over 1 log10 copies/mL.

What does the source list for `CC[C@H]1C[C@H](C)[C@@]2(NC1=O)O[C@@H](C[C@H](O)[C@@H](C)CC/C=C/C=C(\C)[C@@H]1C/C=C/C=C/[C@H](O)[C@H](C)[C@@H](O)[C@@H](CCC(C)=O)C(=O)N[C@@H](C(C)C)C(=O)N[C@@H](Cc3cccc(O)c3)C(=O)N3CCC[C@H](N3)C(=O)O1)[C@H](C)[C@H](O)[C@@H]2C` [Sanglifehrin A, 5, Sanglifehrin A, reference compound]?
EC50 ([1]; read-out: EC50): 0.318 µM; EC90 ([1]; read-out: EC90): 5.5 µM; IC50 [2]: 0.215 µM; Solubility [3]: 9.4 µM (≈ 10.2 µg/mL); higher affinity for CyPA compared to CsA (CyPA): approximately 20 fold; CC50 (Huh5.2 cells; Huh5.2 cells, MTS, 72 hours): 9.1 µM; cytotoxicity against the cell line (in words) (Huh5.2 cells; as shown by CC50): more cytotoxicity; IC50 [4]: 0.37 µM

Which results are given for `CON(C)C(=O)/C=C/C=C(\C)[C@@H]1C/C=C/C=C/C=C(\C)[C@@H](O)[C@@H](CCC(C)=O)C(=O)N[C@@H](C(C)C)C(=O)N[C@@H](Cc2cccc(O)c2)C(=O)N2CCCC(N2)C(=O)O1` (stereo partly shown) [compound 29]?
Selectivity index (CC50/EC50) [1]: 68.4; potency in the Huh5.2 replicon assay (in words) [1]: very potent; EC50 [1, 13]: 0.293 µM; EC90 [1, 13]: 1.5 µM; EC50 ([5]; Human immunodeficiency virus 1, BAL, HeLa, 48 h, read-out: HeLa cells EC50): 0.4 µM; potency at inhibiting HIV infection compared to cyclosporine A, 1 (in words) ([5]; four cell types): significantly more potent; EC50 [6]: 0.2 µM; EC50 [7]: 0.21 µM; EC50 [8]: 0.31 µM; inhibiting replication of HBV (in words) [9]: remarkably potent; EC50 ([9]; Hepatitis B virus, HepG2 2.2.15, six days, read-out: HBV EC50): < 0.1 µM; CC50 at 6 days [10]: > 32 µM; cytotoxicity in HBV assay (in words) (HepG2 2.2.15 cells): no cytotoxicity; Solubility (physchem): 66 µM (≈ 53.2 µg/mL); IC50 [11]: 0.25 µM; CC50 at 72 h [12]: 20.2 µM; disruption of the CypD-NS5A complex (in words) [4]: potent disruption

Reference: US9119853B2, “Sanglifehrin based compounds” (priority 2010, dated 2015)
